Results reported in US20080261986A1, “PHARMACEUTICAL FORMULATIONS FOR IONTOPHORETIC DELIVERY OF AN ANTI-FUNGAL DRUG” (priority 2007, published 2008).
Where a name gives a salt, the structure may show the parent alone.

Key:
[1] = Permeation through hoof membrane in Franz diffusion cell, passive versus iontophoretic; format: in vitro ADME, bovine
Protocol: The permeation experiments were conducted to optimize the parameters for iontophoretically-assisted terbinafine HCl into the hoof membrane. In these experiments bovine hoof membranes (˜0.250 mm thickness) were used as a model for human nail plates. The prehydrated (in water for 60 min) hoof membrane was sandwiched between the donor and receptor compartments of Franz diffusion cell (FDC). The receptor compartment was filled with receiver fluid (5 ml of PBS-5% Tween 80 (T80), water or water-T80 as indicated) and the set up was visually examined for any leaks by inverting the FDC. Two ml of drug solutions (5-10 mg/ml) or suspensions (5-10 mg/ml) were placed in the donor compartment of the Franz diffusion cell. […] Aliquots (50 μl) of the receptor phase were taken every 15 minutes for the first two hours and every hour subsequently for 8 h. A last aliquot was taken at 24 h. Some experiments were conducted for longer in which case aliquots were taken daily. […] Control passive experiments were conducted in the same way except for the application of electric current. Data were expressed as means ±standard deviations. All experiments were performed in triplicate. Drug permeation was measured as described above for up to 24 hours (n=3). For iontophoretic permeation, current density of 1 mA cm^2 was applied for 1 hr using carbon electrodes. […]

[2] = Effect of Tween-20 and Tween-80 on terbinafine HCl solubility in water and PBS; format: physicochemical; details: thermodynamic from solid, n = 3
Protocol: The influence of Tween-20 and Tween-80 on terbinafine HCl solubility in water and PBS was determined. The drug was added to each of the solvents until visual saturation was obtained, then left at controlled temperature (19° C.) or 24 hours. The saturated solutions were filtered and drug solubility in the filtrate was determined by UV spectrophotometer.

[3] = Delivery from nail-only and nail and skin applicators, nail on agarose model; format: in vitro ADME; details: for nail loading range: Coulombic dose range 2-60 mA*min
Source text: In the nail and skin applicator, the drug was delivered to both the nail and the skin (not shown). In the nail and skin applicator, the polyurethane foam and the active electrode (Ag-C) extended past the toe nail and onto agarose to mimic skin delivery. The agarose was covered with fluorinated ethylene propylene (FEP) membrane with uniform 0.5 mm holes distributed 5 mm apart to mimic the semi-restrictive property of the skin. […] The applicator extensions were adhered down to the base of the glass plate where the agarose was placed. The saline presoaked (1 hr) toe nail was placed on the curved agarose gel (1% w/v) with a counter electrode on the bottom of the agarose (standard EKG AgCl electrode with hydrogel, […]). […] Passive delivery was also run for 1 hr without current. […] The amount of drug permeated through the nail and into the agarose was determined by extracting terbinafine using 0.1M HCl and analyzing the samples by HPLC. Additional terbinafine HCl delivery testing using both types of applicators at different Coulombic doses were performed on the nail on agarose model. […] These additional doses, along with the higher 60 mA*min dose, were plotted as terbinafine loading (mg/g) with respect to Coulombic dose (FIG. 9F).

## CN(C/C=C/C#CC(C)(C)C)Cc1cccc2ccccc12 [terbinafine HCl, (E)-N-(6,6-dimethyl-2-hepten-4-ynyl)-N-methyl-1-naphthylmethamine hydrochloride]
[1]; bovine, 10 mg/ml
  time at which iontophoretic drug permeation leveled off: about 8 hrs
[1]; passive delivery, at 24 h, water-T80 and 10 mg/ml drug solution, average of replicates
  drug concentration in the receptor phase: 20 ng/mL
[2]; aqueous buffer, PBS, 19° C.
  solubility at 24 h: 1320 µg/mL
[2]; aqueous with cosolvent or surfactant or cyclodextrin, PBS and 5% Tween-20, 19° C.
  solubility at 24 h: 5220 ± 20 µg/mL
[2]; aqueous with cosolvent or surfactant or cyclodextrin, PBS and 5% Tween-80, 19° C.
  solubility at 24 h: 6530 ± 60 µg/mL
[2]; aqueous with cosolvent or surfactant or cyclodextrin, Water and 5% Tween-20, 19° C.
  solubility at 24 h: 10600 ± 660 µg/mL
[2]; aqueous with cosolvent or surfactant or cyclodextrin, Water and 5% Tween-80, 19° C.
  solubility at 24 h: 11500 ± 640 µg/mL
[2]; Distilled water, 19° C.
  solubility at 24 h: 6370 ± 310 µg/mL
[3]; 1 h, 4 %
  share of the permeated drug that passed through the nail: 8%
  share of the total permeated drug which passed through areas surrounding the nail: Approximately 92%
[3]; nail and skin applicator
  nail loading range: 20 to 90 µg/g
[3]; nail only applicator
  nail loading range: 124 to 588 µg/g
